Measured values reported in patent US20210032257A1, “(E)-1-(4-(DIMETHYLAMINO)BUT-2-ENOYL)PYRROLIDIN-3-YL 4-((3-ISOPROPYL-5-METHYLPYRAZOLO[1,5-A]PYRIMIDIN-7-YL)AMINO)PIPERIDINE-1-CARBOXYLATE FOR INHIBITING CDK7” (Eli Lilly and Company, priority 2017, published 2021).

Key:
Assay in all cases: Biomarker study proliferation (CellTiter-Glo)
Assay type in all cases: cell-based
U118MG = tested on: U118MG
Outline: (§1)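 Profiling across cell lines annotated for ARID1A, KMT2C, KMT2D or RB1 alterations used CellTiter-Glo viability after 7 days' treatment. Responses were classed insensitive, cytostatic or cytotoxic using IC50 1 μM and 70% inhibition cut-offs.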

22RV1 = tested on: 22RV1
Outline: as §1

MHCC97H = tested on: MHCC97H
Outline: as §1

T47D = tested on: T47D
Outline: as §1

HEC1A = tested on: HEC1A
Outline: as §1

MKN74 = tested on: MKN74
Outline: as §1

K562 = tested on: K562
Outline: as §1

OVCAR5 = tested on: OVCAR5
Outline: as §1

SW48 = tested on: SW48
Outline: as §1

GL261 = tested on: GL261
Outline: as §1

NCIH520 = tested on: NCIH520
Outline: as §1

MX1 = tested on: MX1
Outline: as §1

NCIH2081 = tested on: NCIH2081
Outline: as §1

SNU1196 = tested on: SNU1196
Outline: as §1

A2058 = tested on: A2058
Outline: as §1

NCIH1092 = tested on: NCIH1092
Outline: as §1

AN3CA = tested on: AN3CA
Outline: as §1

AZ521 = tested on: AZ521
Outline: as §1

A2780 = tested on: A2780
Outline: as §1

[1] = Homo sapiens, 168 h, read-out: Anti-proliferation effect IC50

Cc1cc(NC2CCN(C(=O)O[C@H]3CCN(C(=O)/C=C/CN(C)C)C3)CC2)n2ncc(C(C)C)c2n1 [Example 1, [(3S)-1-[(E)-4-(dimethylamino)but-2-enoyl]pyrrolidin-3-yl] 4-[(3-isopropyl-5-methyl-pyrazolo[1,5-a]pyrimidin-7-yl)amino]piperidine-1-carboxylate]
IC50 (U118MG; Homo sapiens, U-118-MG, 168 h, read-out: Anti-proliferation effect IC50): 1.17 µM
Anti-proliferation effect % Inh. (U118MG; U118MG, CNS, 7 days): 42%
Anti-proliferation effect Outcome (U118MG; U118MG, CNS, 7 days): Insensitive (insensitive (IC50≥1 μM))
Anti-proliferation effect % Inh. (22RV1; 22RV1, PROSTATE, 7 days): 77%
Anti-proliferation effect Outcome (22RV1; 22RV1, PROSTATE, 7 days): Cytotoxic (cytotoxic (IC50<1 μM and % inhibition ≥70%))
IC50 (22RV1; Homo sapiens, 22Rv1, 168 h, read-out: Anti-proliferation effect IC50): 0.028 µM
IC50 (MHCC97H; [1]): 0.243 µM
Anti-proliferation effect % Inh. (MHCC97H; LIVER, 7 days): 59%
Anti-proliferation effect Outcome (MHCC97H; LIVER, 7 days): Cytostatic (cytostatic (IC50<1 μM and % inhibition <70%))
Anti-proliferation effect % Inh. (T47D; BREAST, 7 days): 68%
Anti-proliferation effect Outcome (T47D; BREAST, 7 days): Cytostatic (cytostatic (IC50<1 μM and % inhibition <70%))
IC50 (T47D; [1]): 0.045 µM
Anti-proliferation effect % Inh. (HEC1A; HEC1A, ENDOMETRIUM, 7 days): 56%
Anti-proliferation effect Outcome (HEC1A; HEC1A, ENDOMETRIUM, 7 days): Cytostatic (cytostatic (IC50<1 μM and % inhibition <70%))
IC50 (HEC1A; Homo sapiens, HEC-1-A, 168 h, read-out: Anti-proliferation effect IC50): 0.162 µM
IC50 (MKN74; Homo sapiens, MKN-74, 168 h, read-out: Anti-proliferation effect IC50): 0.073 µM
Anti-proliferation effect % Inh. (MKN74; MKN74, STOMACH, 7 days): 71%
Anti-proliferation effect Outcome (MKN74; MKN74, STOMACH, 7 days): Cytotoxic (cytotoxic (IC50<1 μM and % inhibition ≥70%))
IC50 (K562; Homo sapiens, K562, 168 h, read-out: Anti-proliferation effect IC50): > 10 µM
Anti-proliferation effect % Inh. (K562; K562, BLOOD, 7 days): −191%
Anti-proliferation effect Outcome (K562; K562, BLOOD, 7 days): Insensitive (insensitive (IC50≥1 μM))
IC50 (OVCAR5; Homo sapiens, OVCAR-5, 168 h, read-out: Anti-proliferation effect IC50): 0.086 µM
Anti-proliferation effect % Inh. (OVCAR5; OVCAR5, OVARY, 7 days): 74%
Anti-proliferation effect Outcome (OVCAR5; OVCAR5, OVARY, 7 days): Cytotoxic (cytotoxic (IC50<1 μM and % inhibition ≥70%))
IC50 (SW48; Homo sapiens, SW48, 168 h, read-out: Anti-proliferation effect IC50): 0.005 µM
Anti-proliferation effect % Inh. (SW48; SW48, INTESTINE, 7 days): 89%
Anti-proliferation effect Outcome (SW48; SW48, INTESTINE, 7 days): Cytotoxic (cytotoxic (IC50<1 μM and % inhibition ≥70%))
Anti-proliferation effect % Inh. (GL261; GL261, BRAIN, 7 days): 85%
Anti-proliferation effect Outcome (GL261; GL261, BRAIN, 7 days): Cytotoxic (cytotoxic (IC50<1 μM and % inhibition ≥70%))
IC50 (GL261; Mus musculus, GL261, 168 h, read-out: Anti-proliferation effect IC50): 0.038 µM
IC50 (NCIH520; Homo sapiens, NCI-H520, 168 h, read-out: Anti-proliferation effect IC50): 0.082 µM
Anti-proliferation effect % Inh. (NCIH520; NCIH520, LUNG, 7 days): 77%
Anti-proliferation effect Outcome (NCIH520; NCIH520, LUNG, 7 days): Cytotoxic (cytotoxic (IC50<1 μM and % inhibition ≥70%))
IC50 (MX1; Homo sapiens, MX1, 168 h, read-out: Anti-proliferation effect IC50): 0.045 µM
Anti-proliferation effect % Inh. (MX1; MX1, BREAST, 7 days): 72%
Anti-proliferation effect Outcome (MX1; MX1, BREAST, 7 days): Cytotoxic (cytotoxic (IC50<1 μM and % inhibition ≥70%))
IC50 (NCIH2081; Homo sapiens, NCI-H2081, 168 h, read-out: Anti-proliferation effect IC50): 0.442 µM
Anti-proliferation effect % Inh. (NCIH2081; NCIH2081, LUNG, 7 days): 44%
Anti-proliferation effect Outcome (NCIH2081; NCIH2081, LUNG, 7 days): Cytostatic (cytostatic (IC50<1 μM and % inhibition <70%))
IC50 (SNU1196; 168 h, read-out: Anti-proliferation effect IC50): 0.043 µM
Anti-proliferation effect % Inh. (SNU1196; SNU1196, BILIARY, 7 days): 68%
Anti-proliferation effect Outcome (SNU1196; SNU1196, BILIARY, 7 days): Cytostatic (cytostatic (IC50<1 μM and % inhibition <70%))
Anti-proliferation effect % Inh. (A2058; A2058, SKIN, 7 days): 97%
Anti-proliferation effect Outcome (A2058; A2058, SKIN, 7 days): Cytotoxic (cytotoxic (IC50<1 μM and % inhibition ≥70%))
IC50 (A2058; Homo sapiens, A2058, 168 h, read-out: Anti-proliferation effect IC50): 0.03 µM
IC50 (NCIH1092; Homo sapiens, NCI-H1092, 168 h, read-out: Anti-proliferation effect IC50): 0.683 µM
Anti-proliferation effect % Inh. (NCIH1092; NCIH1092, LUNG, 7 days): 42%
Anti-proliferation effect Outcome (NCIH1092; NCIH1092, LUNG, 7 days): Cytostatic (cytostatic (IC50<1 μM and % inhibition <70%))
Anti-proliferation effect % Inh. (AN3CA; AN3CA, ENDOMETRIUM, 7 days): 67%
Anti-proliferation effect Outcome (AN3CA; AN3CA, ENDOMETRIUM, 7 days): Cytostatic (cytostatic (IC50<1 μM and % inhibition <70%))
IC50 (AN3CA; Homo sapiens, AN3-CA, 168 h, read-out: Anti-proliferation effect IC50): 0.05 µM
Anti-proliferation effect % Inh. (AZ521; AZ521, STOMACH, 7 days): 76%
Anti-proliferation effect Outcome (AZ521; AZ521, STOMACH, 7 days): Cytotoxic (cytotoxic (IC50<1 μM and % inhibition ≥70%))
IC50 (AZ521; Homo sapiens, AZ-521, 168 h, read-out: Anti-proliferation effect IC50): 0.036 µM
Anti-proliferation effect % Inh. (A2780; A2780, OVARY, 7 days): 74%
Anti-proliferation effect Outcome (A2780; A2780, OVARY, 7 days): Cytotoxic (cytotoxic (IC50<1 μM and % inhibition ≥70%))
IC50 (A2780; Homo sapiens, A2780, 168 h, read-out: Anti-proliferation effect IC50): 0.052 µM
